The source of these data is paper PMC6274445, “Compound Library Screening Identified Cardiac Glycoside Digitoxin as an Effective Growth Inhibitor of Gefitinib-Resistant Non-Small Cell Lung Cancer via Downregulation of α-Tubulin and Inhibition of Microtubule Formation” (Molecules, 2016).

The structures appear in SMILES notation.

This assay addresses T1, Na+/K+-ATPase.
T1 construct: gene ATP1A1
As to the kind of experiment: in vitro enzymatic assay, inorganic phosphate release during ATP hydrolysis (Taussky-Shorr, […] nm). Type of assay: biochemical.

For orientation: EC50 means the concentration that produces a half-maximal response. Read a high EC50 as a need for much substance. On to `C[C@H]1O[C@@H](O[C@H]2[C@@H](O)C[C@H](O[C@H]3[C@@H](O)C[C@H](O[C@H]4CC[C@@]5(C)[C@H](CC[C@@H]6[C@@H]5CC[C@]5(C)[C@@H](C7=CC(=O)OC7)CC[C@]65O)C4)O[C@@H]3C)O[C@@H]2C)C[C@H](O)[C@@H]1O` [Digitoxin], for which the 50% effective concentration (EC50) was 0.78 µM.
